# According to patent US12286437B2, “Cardiac sarcomere inhibitors” (Cytokinetics, Inc., priority 2021, dated 2025):
# Assays:
# [1] = system: bovine cardiac myofibrils; assay: Myofibril assay (ATPase activity of skinned bovine cardiac myofibrils, PK/LDH-coupled); format: biochemical; conditions: inhibition of steady-state ATPase of bovine cardiac myofibrils; CaCl2 for 50% or 75% activation
# Description: To evaluate the effect of compounds on the ATPase activity of full-length cardiac myosin in the context of the native sarcomere, skinned myofibril assays were performed. Bovine cardiac myofibrils were obtained by homogenizing bovine cardiac left ventricular tissue in the presence of a detergent such as triton X-100. Such treatment removes membranes and a majority of the soluble cytoplasmic proteins but leaves intact the cardiac sarcomeric acto-myosin apparatus. Myofibril preparations retain the ability to hydrolyze ATP in a Ca^2+ regulated manner. ATPase activities of such myofibril preparations in the presence and absence of compounds were assayed at Ca^2+ concentrations activating to a defined fraction of the maximal rate (i.e., […], 75%). Small molecule agents were assessed for their ability to inhibit the steady-state ATPase activity of bovine cardiac myofibrils using pyruvate kinase and lactate dehydrogenase (PK/LDH)-coupled enzyme system. This assay regenerates myosin-produced ADP into ATP by oxidizing NADH, producing an absorbance change at 340 nm. Prior to testing small molecule agents, the bovine cardiac myofibrils were assessed for their calcium responsiveness and the calcium concentration that achieves either a 50% (pCa50) or 75% (pCa75) activation of the myofibril system was chosen as the final condition for assessing the inhibitory activity of the small molecule agents. All enzymatic activity was measured in a buffered solution containing 12 mM PIPES (piperazine-N,N′-bis(2-ethanesulfonic acid), 2 mM magnesium chloride at pH 6.8 (PM 12 buffer). Final assay conditions were 1 mg/mL of bovine cardiac myofibrils, 4 U/mL pyruvate kinase, 6 U/mL lactate dehydrogenase, 50 μM ATP, 0.1 mg/mL BSA (bovine serum albumin), 10 ppm antifoam, 1 mM DTT, 0.5 mM NADH, 1.5 mM PEP, 0.6 mM EGTA, and an amount of CaCl2 sufficient to achieve either 50% or 75% activation of the myofibril ATPase activity. Results for compounds tested are provided in Table A. Compounds tested were prepared in accordance with the synthetic procedures described herein.
# [2] = Dog cassette dosing pharmacokinetics; format: in vivo, beagle dogs; conditions: male, beagle, plasma, IV; for Vd: read-out: Vss; for half-life: read-out: t½ (converted)
# Description: Non-naïve male beagle dogs (8 months to 3 years of age, body weight 8-14 kg) sourced from Jiangsu Johnsen Bioresource CO. and/or Beijing Rixinkeji CO., LTD and/or Beijing Marshall Biotechnology CO., LTD were used in this study. All animals for IV administration had free access to food and water. The IV dose solution was prepared in 10% DMA/50% PG/40% HPβCD solution (40% w/v aqueous HPβCD) at a concentration of 0.2 mg/mL. Concentrations of IV dose was measured at the end of the study. PK parameters were calculated using the nominal dose values if the measured values were within 20% of the nominal values. Blood samples were collected by venipuncture of peripheral veins except the dosing vein at pre-dose, 5 15, 30 min, 1, 2, 4, 6, 8 and 24 h post-dose. Blood samples were centrifuged and resultant plasma was frozen for bioanalysis. Plasma samples were stored at −80° C. before analysis. Plasma samples were analyzed for compound concentrations using the LC/MS/MS method. Briefly, a 50 μL aliquot of each plasma sample was mixed with 100 μL of acetonitrile that contained an internal standard. The mixture was vortexed and centrifuged. Ten (10) μL of the resulting solution was injected onto a reverse-phase C18 column and the resultant peaks detected on a LC/MS/MS equipped with a turbo ionspray ionization source. Sample concentrations below the limit of quantification (BLQ) were treated as zero for PK calculations. PK parameters were estimated from individual animals using noncompartmental analysis of the concentration-time data (Phoenix WinNonLin software, version 64; Pharsight, Mountain View, CA). The elimination rate constant (k) was calculated as the absolute value of the slope of the linear regression of logarithm (log) of the concentration versus time for the last three data points of the concentration-time profiles. Apparent elimination half-life (t1/2) values were calculated as ln(2)/k. Area under the concentration-time curve (AUC) values were estimated using linear trapezoidal method. AUCt values were calculated from the dosing time to the last measurable concentration. AUC∞ values were calculated as the sum of the corresponding AUCt and the ratio of the last detectable concentration divided by k. Plasma clearance (CL) was calculated from Dose/AUC∞. Mean resident time extrapolated to infinity (MRT∞) was estimated by moment analysis. Vss was calculated from MRT∞×CL. Maximum concentration (Cmax) and time to reach Cmax (tmax) were recorded as observed. As this was a cross-over study, bioavailability was calculated dAUC∞,po/dAUC∞,iv×100% where dAUC was the dose normalized AUC value from the same animal given IV and PO dose. Data for compounds tested are provided in Table G. Compounds tested were prepared in accordance with the synthetic procedures described herein.
# [3] = Monkey cassette dosing pharmacokinetics; format: in vivo; conditions: IV; for clearance / Vd: male, plasma; for Vd: read-out: Vss
SMILES,CDMF IC15 [1] [nM],clearance [2] [mL/min/kg],Vd [2] [L/kg],half-life [2] [h],t l/2 [3] [h],clearance [3] [mL/min/kg],Vd [3] [L/kg]
"CC[C@H]1CC[C@H](N2CC(=O)N(Cc3ccc(Cl)cc3)C3(CN(C(N)=O)C3)C2=O)CC1 [Compound 1, 5-(4-chlorobenzyl)-8-((1r,4r)-4-ethylcyclohexyl)-6,9-dioxo-2,5,8-triazaspiro[3.5]nonane-2-carboxamide]",800,3.65,3.44,12.5,–,–,–
"CC[C@H]1CC[C@H](N2CC(=O)N(Cc3ccc(F)cc3)C3(CN(C(N)=O)C3)C2=O)CC1 [Compound 2, 8-((1r,4r)-4-ethylcyclohexyl)-5-(4-fluorobenzyl)-6,9-dioxo-2,5,8-triazaspiro[3.5]nonane-2-carboxamide]",2100,4.06,1.99,7.34,–,–,–
"C[C@H]1CC[C@H](N2CC(=O)N(Cc3ccc(Cl)cc3)C3(CN(c4cccnn4)C3)C2=O)CC1 [Compound 10, 5-(4-chlorobenzyl)-8-((1r,4r)-4-methylcyclohexyl)-2-(pyridazin-3-yl)-2,5,8-triazaspiro[3.5]nonane-6,9-dione]",300,36.3,18.6,9.38,–,–,–
"CC[C@H]1CC[C@H](N2CC(=O)N(Cc3ccc(F)c(F)c3)C3(CN(C(N)=O)C3)C2=O)CC1 [Compound 11, 5-(3,4-difluorobenzyl)-8-((1r,4r)-4-ethylcyclohexyl)-6,9-dioxo-2,5,8-triazaspiro[3.5]nonane-2-carboxamide]",700,6.3,4.42,9.66,3.03,33.1,7.26

# The remaining lines, values ahead:
CDMF IC15 [1] [nM],clearance [2] [mL/min/kg],Vd [2] [L/kg],half-life [2] [h],t l/2 [3] [h],clearance [3] [mL/min/kg],Vd [3] [L/kg],SMILES
400,34.4,17.8,7.39,–,–,–,"C[C@H]1CC[C@H](N2CC(=O)N(Cc3ccc(F)c(F)c3)C3(CN(c4cccnn4)C3)C2=O)CC1 [Compound 12, 5-(3,4-difluorobenzyl)-8-((1r,4r)-4-methylcyclohexyl)-2-(pyridazin-3-yl)-2,5,8-triazaspiro[3.5]nonane-6,9-dione]"
1300,36.5,6.44,2.43,1.1,17.1,1.48,"CC[C@H](C)N1CC(=O)N(Cc2ccc(F)c(F)c2)C2(CN(c3cccnn3)C2)C1=O [Compound 14, (S)-8-(sec-butyl)-5-(3,4-difluorobenzyl)-2-(pyridazin-3-yl)-2,5,8-triazaspiro[3.5]nonane-6,9-dione]"
1400,24.2,2.84,1.49,–,–,–,"CCC(CC)N1CC(=O)N(Cc2ccc(F)c(F)c2)C2(CN(c3cccnn3)C2)C1=O [Compound 15, 5-(3,4-difluorobenzyl)-8-(pentan-3-yl)-2-(pyridazin-3-yl)-2,5,8-triazaspiro[3.5]nonane-6,9-dione]"
900,33,7.08,3.07,–,–,–,"CC[C@H](C)N1CC(=O)N(Cc2ccc(F)c(C)c2)C2(CN(c3cccnn3)C2)C1=O [Compound 16, (S)-8-(sec-butyl)-5-(4-fluoro-3-methylbenzyl)-2-(pyridazin-3-yl)-2,5,8-triazaspiro[3.5]nonane-6,9-dione]"
900,41.9,8.25,3.02,–,–,–,"C[C@H]1CC[C@H](N2CC(=O)N(Cc3ccc(F)cc3)C3(CN(c4cccnn4)C3)C2=O)CC1 [Compound 17, 5-(4-fluorobenzyl)-8-((1r,4r)-4-methylcyclohexyl)-2-(pyridazin-3-yl)-2,5,8-triazaspiro[3.5]nonane-6,9-dione]"
